Measurements reported in ChEMBL document CHEMBL1137902, “N-Sulfonyl homoserine lactones as antagonists of bacterial quorum sensing” (Bioorg Med Chem Lett, 2004).

Tested on: Aliivibrio fischeri
Assay: Tested for the ability to interfere with the induction of luminescence by N-3-oxohexanoyl-L-homoserine lactone in the Vibrio fischeri QS system
Format: functional, organism-based

Structure (SMILES) | IC50 [µM]
O=C(CC(=O)NC1CCOC1=O)Cc1ccccc1 (centres undefined) | 2
O=C(CCCc1ccccc1)NC1CCOC1=O (centres undefined) | 2
CCCCCS(=O)(=O)NC1CCOC1=O (centres undefined) | 2
CCCCCCCS(=O)(=O)NC1CCOC1=O (centres undefined) | 9
O=C1OCCC1NS(=O)(=O)CCCc1ccccc1 (centres undefined) | 20
O=C1OCCC1NS(=O)(=O)CCc1ccccc1 (centres undefined) | 3
CCCCCCCCS(=O)(=O)NC1CCOC1=O (centres undefined) | 10
CCCCS(=O)(=O)NC1CCOC1=O (centres undefined) | 12
CCCCCCS(=O)(=O)NC1CCOC1=O (centres undefined) | 6.5
